# Source: patent US20080124413A1, “NOVEL COMPOSITION CONTAINING EXTRACTS OF BUTYROSPERMUM PARKII AND THE USE OF SUCH A COMPOSITION FOR PREPARING A MEDICAMENT OR A DIETARY SUPPLEMENT FOR THE TREATMENT OR PREVENTION OF INFLAMMATION […] OR PAIN” (BSP Pharma A/S, priority 1999, published 2008)
# Where two headings read alike, the source gives them in different places.
# Assays:
# rat = settings: The Merck Index; cited from earlier work
# [1] = test system: BALB/c mouse arthritis induced by collagen mono-clonal antibody (mAb) and lipopolysaccharide; format: in vivo; settings: cyclophosphamide 10 mg/kg x3 orally, p<0.05 Wilcoxon
# Description: BPC was dissolved in 100% corn oil. […] Dosing volume was 5 ml/kg.
# In this study, male BALB/c mice weighing 20±1 grams were used. Space allocation for 5 mice was 45×23×15 cm. The animals were housed in APEC® (Allentown Gaging, Allentown, N.J. 08501, U.S.A.) cages and maintained in a hygienic environment under controlled temperature (22° C.-24° C.) and humidity (60%-80%) with 12-hours light/dark cycles for at least one week prior to being used. Free access to standard lab chow for mice and tap water was granted. All aspects of this work including housing, experimentation and disposal of animals were performed in general according to the International Guiding Principles for Biomedical Research Involving Animals (CIOMS Publication No. ISBN 92 90360194, 1985).
# The study was performed according to the method of Terato et al. (Autoimmunity, 22:137-147, 1995).
# Groups of 5 BALB/c mice, 6-8 weeks of age, were used for the induction of arthritis by monoclonal antibodies (mAbs) and lipopolysaccharide (LPS). […] This was followed by intravenous 25 μg of LPS 72 hours later (day 3). From day 3, test substances were administered orally once daily for 3 consecutive days. At day 5, one or two paws (particularly the hind) began to appear red and swollen, and from day 7, arthritis symptoms of the two hind paws became severely red and swollen in untreated mice. A plethysmometer (Ugo Basile Cat # 7150) with water cell (12 mm diameter) was used for the measurement of increase in both hind paw volumes at day 7, 10, 14 and 17. The percent of inhibition of increased paw volume was calculated as follows:
# Inhibition (%): [1−(Tn−To)/(Cn−Co)]×100
# Co (Cn): Volume of day 0 (day n) in vehicle control (both hind paws summed)
# To (Tn): Volume of day 0 (day n) in test compound-treated group (both hind paws summed)
# Wilcoxon rank sum test for paired differences was used for comparing swelling in the test compound treated groups with swelling in the control group.
compound,measurement,setting,value
O=P1(N(CCCl)CCCl)NCCCO1 (stereo not shown) [cyclophosphamide],LD50,rat,94 mg/kg
same,reduction of hind paw edema relative to the vehicle-treated control group,[1]; day 10,79%
same,reduction of hind paw edema relative to the vehicle-treated control group,[1]; day 14,91%
same,reduction of hind paw edema relative to the vehicle-treated control group,[1]; day 17,90%
